Experimental data published in publication PMC7277860, “Viridistratins A−C, Antimicrobial and Cytotoxic Benzo[j]fluoranthenes from Stromata of Annulohypoxylon viridistratum (Hypoxylaceae, Ascomycota)” (Biomolecules, 2020).
Converted amounts (≈) assume the structure as drawn.

What was measured:
Assay in all cases: MIC serial dilution assay
Assay type in all cases: cell-based
[1] = tested on: Schizosaccharomyces pombe; details: Schizosaccharomyces pombe DSM70572; overnight, 30 °C; reference nystatin 1 mg/mL; read-out: Minimum Inhibitory Concentration (MIC)
Protocol: (§1) Compounds 1, 2, 4 and 5 were dissolved in MeOH (1 mg/mL) for the antimicrobial activity assay, while compound 3 was dissolved in MeOH: DMSO 9+1 (1 mg/mL). The solvents were also used as negative controls.
(§2) Minimum inhibitory concentrations (MIC) were determined in a serial dilution assay, as described previously; a detailed protocol can be found in the Supporting Information. The compounds (1 mg/mL) were diluted to a range of 66.7 to 0.52 µg/mL and incubated with the test organisms overnight. Inhibition of growth was visually evaluated the next day: the MIC is defined as the lowest concentration of the test compound where no growth of the test organism was observed. Various test organisms of fungal and bacterial origin were tested to cover a broad range of microorganisms. This selection is also being used as a standard test panel in our attempts to discover new anti-infectives, as it represents a broad spectrum of pathogens of clinical interest, as well as sensitive indicator strains (bacteria: Bacillus subtilis, Staphylococcus aureus, Micrococcus luteus, Chromobacterium violaceum, Escherichia coli and Pseudomonas aeruginosa; mycobacteria: Mycolicibacterium smegmatis and fungi: Candida albicans, Schizosaccharomyces pombe, Mucor hiemalis, Pichia anomala and Rhodotorula glutinis).
(§3) Protocol: Antimicrobial Activi ty Assay
(§4) The assay was conducted as a minimum inhi bitory concentration (MIC) assay in 96-well ro und-bottom mi crotiter pl ate s usi ng the p ar ameter s su mm ari zed i n T a bl e S 1 and as already described i n [S1].
(§5) Stocks of the test organi sms were generated by growing the organisms o ver ni ght i n 50 mL shaki ng fl asks fi ll ed wi th 25 mL of the growth medi um at 140 rpm (for media and temperatures see Table S1). If the organisms were well grown the ne xt day, which was checked by occurrence of an optical density (OD)>30 of the suspension (OD600 nm for bacteria, OD548 nm for fungi and M. smegma tis) , aliquots of these were stored i n 1.5 mL reaction tube s in a freezer at −80 °C for up to 12 mo nths . Upon use, aliquots were unth awed and the OD of the suspension measured and adjusted by diluting with the respective growth medi um. OD600 nm w as adj usted to 0.01 and OD548 nm to 0.1.
(§6) Subse que ntly, 150 µL o f the adjusted suspensions were added to all wells of a 96-wel l microtiter pl ate (one test organi sm per plate). In row A, additional 130 µL of suspensions plus 20 µL of the test compounds (1 mg/mL) and the controls (one compound/column) were added. MeOH as well as MeOH:DMSO 9+1 were used as negative controls, while different positive controls (refer ences) were used for the test organisms (see Tabl e S1). Then, starti ng from row A, 150 µ L of the suspension were transferred to the next row, the contents thoroughly mixed, and 150 µ L transferred to the following row.
(§7) The remaining 150 µ L after row H were discarded. […]
(§8) compounds, ranging from 66.7 µg/mL i n row A to 0.52 µg/mL i n row H.
(§9) The microtiter plates were then incubated overnight o n a microplate shaker at 800 rpm at 30 or 37 °C (see Table S1) and were visually evaluated the next day. The MIC is defined as the lowest concentration were no growth of the test organism was o bserved. A lower MIC thus corresponds to a higher antimicrobial activity of the test compound.
(§10) Table S1: MIC assay ex per i men t parameters test organism strain No. growth incubation positive control (reference) […]
Schizosaccharomyces DSM70572 MYC 3 30 nyst ati n 1.0 mg/mL […]
(§11) Rhodotorula glutinis DSM10134 MYC 3 30 nyst ati n 1.0 mg/mL
(§12) 1 MHB: Müller-Hinton Broth (SN X927.1, Ca r l Roth GmbH, Karlsruhe, Germany) 2 7H9+ADC: Middlebrook 7H9 Broth Base + Middlebrook ADC Growth Supplement (SN M0678+M0553, Merck, Darmstadt, Germany)
(§13) 3 MYC: 1 % w/v, bacto peptone, 1% w/v yeast extract, 2 % w /v glycerol, pH 6.3 [S1] Helaly, S.E.; Ashrafi, S.; Teponno, R.B.; Bernecker, S.; Dababat, A.A.; Maier, W.; Stadler, M.
(§14) Nematicidal Cyclic Lipodepsipeptides and a Xanthocillin Derivative from a Phaeosphariaceous […]

Staphylococcus aureus = Staphylococcus aureus DSM346; overnight, 30 °C; reference oxytetracycline 0.1 mg/mL; read-out: Minimum Inhibitory Concentration (MIC)
Protocol: as §1, §2, §3, §4, §5, §6, §7, §8, §9, §10
Staphylococcus aureus DSM346 MHB 1 30 oxytetr acyclin 0.1 mg/mL […]
as §11, §12, §13, §14

Escherichia coli = Escherichia coli DSM1116; overnight, 37 °C; reference oxytetracycline 0.1 mg/mL; read-out: Minimum Inhibitory Concentration (MIC)
Protocol: as §1, §2, §3, §4, §5, §6, §7, §8, §9, §10
Escherichia coli DSM1116 MHB 1 37 oxytetr acyclin 0.1 mg/mL […]
as §11, §12, §13, §14

Rhodotorula glutinis = details: Rhodotorula glutinis, DSM10134, Rhodotorula glutinis DSM10134; overnight, 30 °C; reference nystatin 1 mg/mL; read-out: Minimum Inhibitory Concentration (MIC)
Protocol: as §1, §2, §3, §4, §5, §6, §7, §8, §9, §10, §11, §12, §13, §14

[2] = tested on: Mycolicibacterium smegmatis; details: Mycolicibacterium smegmatis ATCC700084; overnight, 37 °C; reference kanamycin 0.1 mg/mL; read-out: Minimum Inhibitory Concentration (MIC)
Protocol: as §1, §2, §3, §4, §5, §6, §7, §8, §9, §10, §11, §12, §13, §14

| SMILES | MIC [1] | MIC (Staphylococcus aureus) | MIC (Escherichia coli) | MIC (Rhodotorula glutinis) | MIC [2] |
| --- | --- | --- | --- | --- | --- |
| COc1cccc2c3c(ccc12)-c1ccc(O)c2c(O)ccc-3c12 [Compound 2, viridistratin B] | 33.3 µg/mL (≈ 106 µM) | 16.7 µg/mL (≈ 53.1 µM) | > 66.7 µg/mL | 33.3 µg/mL (≈ 106 µM) | 33.3 µg/mL (≈ 106 µM) |
| O=C1CCC(=O)c2c1c(O)cc1c2-c2ccc(O)c3c(O)ccc-1c23 [Compound 5, truncatone C] | > 66.7 µg/mL | > 66.7 µg/mL | > 66.7 µg/mL | – | > 66.7 µg/mL |
| O=C1C[C@H]2C(=C3CCC(=O)c4c(O)ccc2c43)c2cccc(O)c21 [Compound 4, truncatone A] | > 66.7 µg/mL | > 66.7 µg/mL | > 66.7 µg/mL | > 66.7 µg/mL | > 66.7 µg/mL |
| Oc1cccc2c3c(ccc12)-c1ccc(O)c2c(O)ccc-3c12 [Compound 1, viridistratin A] | 66.7 µg/mL (≈ 222 µM) | 66.7 µg/mL (≈ 222 µM) | > 66.7 µg/mL | 33.3 µg/mL (≈ 111 µM) | > 66.7 µg/mL |
| COc1cccc2c3c(ccc12)-c1ccc(O)c2c(OC)ccc-3c12 [Compound 3, viridistratin C] | > 66.7 µg/mL | > 66.7 µg/mL | > 66.7 µg/mL | > 66.7 µg/mL | > 66.7 µg/mL |
